{"source": "patent US20060069132A1", "about": "“Azolecarboxamide herbicides” (priority 2004, published 2006)", "key": {"pigweed": {"system": "pigweed", "experiment": "Test B pre-/postemergence herbicide test", "type": "in vivo, Amaranthus retroflexus", "settings": "for Pigweed plant response rating (0 to 100 scale) / Plant response rating, Pigweed: 0 = no effect, 100 = complete control, preemergence; for Pigweed plant response rating: postemergence", "in_short": "(§1)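 Visual rating, 0 (no effect) to 100 (complete control), versus untreated controls after 13–15 d in greenhouse. Pre- and postemergence applications (postemergence plants 2–18 cm, 1–4 leaves); flooded paddy arm at 2-leaf stage. Compounds in non-phytotoxic solvent plus surfactant.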"}, "barnyardgrass": {"system": "barnyardgrass", "experiment": "Test B flooded paddy test", "type": "in vivo, Echinochloa crus-galli", "settings": "1000 g ai/ha, scale 0 to 100 (0 no effect, 100 complete control)", "in_short": "(§2)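 Greenhouse test; postemergence application to plants at 1–4 leaves (2–18 cm); paddy species at 2 leaves; evaluated visually vs controls at 13–15 days; scale 0–100 (100 = complete control).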"}, "blackgrass": {"system": "blackgrass", "experiment": "Test B postemergence herbicide test", "type": "in vivo, Alopecurus myosuroides", "settings": "postemergence", "in_short": "as §2"}, "large crabgrass": {"system": "large crabgrass", "experiment": "Test B pre-/postemergence herbicide test", "type": "in vivo, Digitaria sanguinalis", "settings": "for Crabgrass, Large plant response rating (0 to 100 scale) / Plant response rating, Crabgrass, Large: 0 = no effect, 100 = complete control, preemergence; for Crabgrass, Large plant response rating: postemergence", "in_short": "as §1"}, "giant foxtail": {"system": "giant foxtail", "experiment": "Test B pre-/postemergence herbicide test", "type": "in vivo, Setaria faberi", "settings": "for Foxtail, Giant plant response rating (0 to 100 scale) / Plant response rating, Foxtail, Giant: 0 = no effect, 100 = complete control, preemergence; for Foxtail, Giant plant response rating: postemergence", "in_short": "as §1"}, "[1]": {"system": "small flower umbrella sedge", "experiment": "Test B flooded paddy test", "type": "in vivo, Cyperus difformis", "settings": "1000 g ai/ha, scale 0 to 100 (0 no effect, 100 complete control)", "in_short": "as §2"}, "corn": {"system": "corn", "experiment": "Test B pre-/postemergence herbicide test", "type": "in vivo, Zea mays", "settings": "for Corn plant response rating (0 to 100 scale) / Plant response rating, Corn: 0 = no effect, 100 = complete control, preemergence; for Corn plant response rating: postemergence", "in_short": "as §1"}, "Surinam grass": {"system": "Surinam grass", "experiment": "Test B pre-/postemergence herbicide test", "type": "in vivo, Urochloa decumbens", "settings": "for Surinam Grass plant response rating (0 to 100 scale) / Plant response rating, Surinam Grass: 0 = no effect, 100 = complete control, preemergence; for Surinam Grass plant response rating: postemergence", "in_short": "as §1"}, "wheat": {"system": "wheat", "experiment": "Test B postemergence herbicide test", "type": "in vivo, Triticum aestivum", "design": "key to Wheat plant response rating: 0 = no effect, 100 = complete control", "settings": "postemergence", "in_short": "(§3)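 Read-out: visual comparison with controls, scored 0 to 100, where 100 means complete control and 0 no effect. Formulated chemicals were applied postemergence to plants 2–18 cm tall (1- to 4-leaf), or to flooded-paddy plants at the 2-leaf stage, then held 13 to 15 days under glass.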"}, "velvetleaf": {"system": "velvetleaf", "experiment": "Test B pre-/postemergence herbicide test", "type": "in vivo, Abutilon theophrasti", "settings": "for Velvetleaf plant response rating: postemergence; for Plant response rating, Velvetleaf: 0 = no effect, 100 = complete control, preemergence", "in_short": "as §1"}, "rice": {"system": "rice", "experiment": "Test B flooded paddy test", "type": "in vivo, Oryza sativa", "settings": "1000 g ai/ha, scale 0 to 100 (0 no effect, 100 complete control)", "in_short": "as §3"}, "lambsquarters": {"system": "lambsquarters", "experiment": "Test B pre-/postemergence herbicide test", "type": "in vivo, Chenopodium album", "settings": "for Lambsquarters plant response rating (0 to 100 scale) / Plant response rating, Lambsquarters: 0 = no effect, 100 = complete control, preemergence; for Lambsquarters plant response rating: postemergence", "in_short": "as §1"}, "ducksalad": {"system": "ducksalad", "experiment": "Test B flooded paddy test", "type": "in vivo, Heteranthera limosa", "settings": "1000 g ai/ha, scale 0 to 100 (0 no effect, 100 complete control)", "in_short": "as §2"}, "wild oat": {"system": "wild oat", "experiment": "Test B postemergence herbicide test", "type": "in vivo, Avena fatua", "settings": "postemergence", "in_short": "as §3"}, "morningglory": {"system": "morningglory", "experiment": "Test B pre-/postemergence herbicide test", "type": "in vivo, Ipomoea coccinea", "settings": "for Morningglory plant response rating (0 to 100 scale) / Plant response rating, Morningglory: 0 = no effect, 100 = complete control, preemergence; for Morningglory plant response rating: postemergence", "in_short": "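Greenhouse pot assay with simultaneous preemergence (treated seed) and postemergence (2–18 cm seedlings) applications of surfactant-containing, non-phytotoxic solvent formulations. Response scored visually 13–15 days later on a 0–100 scale, 100 meaning complete control.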"}, "[2]": {"settings": "125 g ai/ha, visual rating, scale 0 (no effect) to 100 (complete control)"}, "[3]": {"settings": "500 g ai/ha, scale 0 to 100, 0 is no effect, 100 is complete control"}}, "data": [{"smiles": "CCNC(=O)c1ccc(F)c(NC(=O)c2cc(C3(C)CC3)nn2CC)c1", "note": "[Compound 300]", "values": [{"measurement": "Pigweed plant response rating (0 to 100 scale)", "setting": "pigweed; 125 g ai/ha", "result": 100}, {"measurement": "Pigweed plant response rating", "setting": "pigweed; [2]", "result": 80}, {"measurement": "Plant response rating, Pigweed", "setting": "pigweed; 500 g ai/ha, visual rating", "result": 100}, {"measurement": "Pigweed plant response rating", "setting": "pigweed; [3]", "result": 90}, {"measurement": "Barnyardgrass plant response rating", "setting": "barnyardgrass", "result": 90}, {"measurement": "Blackgrass plant response rating", "setting": "blackgrass; [2]", "result": 10}, {"measurement": "Blackgrass plant response rating", "setting": "blackgrass; [3]", "result": 30}, {"measurement": "Crabgrass, Large plant response rating (0 to 100 scale)", "setting": "large crabgrass; 125 g ai/ha", "result": 100}, {"measurement": "Crabgrass, Large plant response rating", "setting": "large crabgrass; [2]", "result": 10}, {"measurement": "Plant response rating, Crabgrass, Large", "setting": "large crabgrass; 500 g ai/ha, visual rating", "result": 100}, {"measurement": "Crabgrass, Large plant response rating", "setting": "large crabgrass; [3]", "result": 30}, {"measurement": "Foxtail, Giant plant response rating (0 to 100 scale)", "setting": "giant foxtail; 125 g ai/ha", "result": 80}, {"measurement": "Foxtail, Giant plant response rating", "setting": "giant foxtail; [2]", "result": 30}, {"measurement": "Plant response rating, Foxtail, Giant", "setting": "giant foxtail; 500 g ai/ha, visual rating", "result": 100}, {"measurement": "Foxtail, Giant plant response rating", "setting": "giant foxtail; [3]", "result": 30}, {"measurement": "Sedge, Umbrella plant response rating", "setting": "[1]", "result": 90}, {"measurement": "Corn plant response rating (0 to 100 scale)", "setting": "corn; 125 g ai/ha", "result": 0}, {"measurement": "Corn plant response rating", "setting": "corn; [2]", "result": 30}, {"measurement": "Plant response rating, Corn", "setting": "corn; 500 g ai/ha, visual rating", "result": 70}, {"measurement": "Corn plant response rating", "setting": "corn; [3]", "result": 30}, {"measurement": "Surinam Grass plant response rating (0 to 100 scale)", "setting": "Surinam grass; 125 g ai/ha", "result": 80}, {"measurement": "Surinam Grass plant response rating", "setting": "Surinam grass; [2]", "result": 10}, {"measurement": "Plant response rating, Surinam Grass", "setting": "Surinam grass; 500 g ai/ha, visual rating", "result": 100}, {"measurement": "Surinam Grass plant response rating", "setting": "Surinam grass; [3]", "result": 10}, {"measurement": "Wheat plant response rating", "setting": "wheat; [2]", "result": 10}, {"measurement": "Wheat plant response rating", "setting": "wheat; [3]", "result": 20}, {"measurement": "Velvetleaf plant response rating", "setting": "velvetleaf; [2]", "result": 40}, {"measurement": "Plant response rating, Velvetleaf", "setting": "velvetleaf; 500 g ai/ha, visual rating", "result": 100}, {"measurement": "Velvetleaf plant response rating", "setting": "velvetleaf; [3]", "result": 70}, {"measurement": "Rice plant response rating", "setting": "rice", "result": 90}, {"measurement": "Lambsquarters plant response rating (0 to 100 scale)", "setting": "lambsquarters; 125 g ai/ha", "result": 100}, {"measurement": "Lambsquarters plant response rating", "setting": "lambsquarters; [2]", "result": 70}, {"measurement": "Plant response rating, Lambsquarters", "setting": "lambsquarters; 500 g ai/ha, visual rating", "result": 100}, {"measurement": "Lambsquarters plant response rating", "setting": "lambsquarters; [3]", "result": 80}, {"measurement": "Ducksalad plant response rating", "setting": "ducksalad", "result": 90}, {"measurement": "Oat, Wild plant response rating", "setting": "wild oat; [2]", "result": 30}, {"measurement": "Oat, Wild plant response rating", "setting": "wild oat; [3]", "result": 30}, {"measurement": "Morningglory plant response rating (0 to 100 scale)", "setting": "morningglory; 125 g ai/ha", "result": 10}, {"measurement": "Morningglory plant response rating", "setting": "morningglory; [2]", "result": 90}, {"measurement": "Plant response rating, Morningglory", "setting": "morningglory; 500 g ai/ha, visual rating", "result": 60}, {"measurement": "Morningglory plant response rating", "setting": "morningglory; [3]", "result": 90}]}, {"smiles": "CCn1nc(C2(C)CC2)cc1C(=O)Nc1cc(C(=O)N2CC=CC2)ccc1F", "note": "[Compound 301]", "values": [{"measurement": "Pigweed plant response rating (0 to 100 scale)", "setting": "pigweed; 125 g ai/ha", "result": 100}, {"measurement": "Pigweed plant response rating", "setting": "pigweed; [2]", "result": 80}, {"measurement": "Plant response rating, Pigweed", "setting": "pigweed; 500 g ai/ha, visual rating", "result": 100}, {"measurement": "Pigweed plant response rating", "setting": "pigweed; [3]", "result": 90}, {"measurement": "Barnyardgrass plant response rating", "setting": "barnyardgrass", "result": 90}, {"measurement": "Blackgrass plant response rating", "setting": "blackgrass; [2]", "result": 10}, {"measurement": "Blackgrass plant response rating", "setting": "blackgrass; [3]", "result": 40}, {"measurement": "Crabgrass, Large plant response rating (0 to 100 scale)", "setting": "large crabgrass; 125 g ai/ha", "result": 100}, {"measurement": "Crabgrass, Large plant response rating", "setting": "large crabgrass; [2]", "result": 20}, {"measurement": "Plant response rating, Crabgrass, Large", "setting": "large crabgrass; 500 g ai/ha, visual rating", "result": 100}, {"measurement": "Crabgrass, Large plant response rating", "setting": "large crabgrass; [3]", "result": 60}, {"measurement": "Foxtail, Giant plant response rating (0 to 100 scale)", "setting": "giant foxtail; 125 g ai/ha", "result": 70}, {"measurement": "Foxtail, Giant plant response rating", "setting": "giant foxtail; [2]", "result": 10}, {"measurement": "Plant response rating, Foxtail, Giant", "setting": "giant foxtail; 500 g ai/ha, visual rating", "result": 90}, {"measurement": "Foxtail, Giant plant response rating", "setting": "giant foxtail; [3]", "result": 20}, {"measurement": "Sedge, Umbrella plant response rating", "setting": "[1]", "result": 90}, {"measurement": "Corn plant response rating (0 to 100 scale)", "setting": "corn; 125 g ai/ha", "result": 0}, {"measurement": "Corn plant response rating", "setting": "corn; [2]", "result": 50}, {"measurement": "Plant response rating, Corn", "setting": "corn; 500 g ai/ha, visual rating", "result": 10}, {"measurement": "Corn plant response rating", "setting": "corn; [3]", "result": 50}, {"measurement": "Surinam Grass plant response rating (0 to 100 scale)", "setting": "Surinam grass; 125 g ai/ha", "result": 90}, {"measurement": "Surinam Grass plant response rating", "setting": "Surinam grass; [2]", "result": 10}, {"measurement": "Plant response rating, Surinam Grass", "setting": "Surinam grass; 500 g ai/ha, visual rating", "result": 100}, {"measurement": "Surinam Grass plant response rating", "setting": "Surinam grass; [3]", "result": 30}, {"measurement": "Wheat plant response rating", "setting": "wheat; [2]", "result": 10}, {"measurement": "Wheat plant response rating", "setting": "wheat; [3]", "result": 20}, {"measurement": "Velvetleaf plant response rating", "setting": "velvetleaf; [2]", "result": 30}, {"measurement": "Plant response rating, Velvetleaf", "setting": "velvetleaf; 500 g ai/ha, visual rating", "result": 100}, {"measurement": "Velvetleaf plant response rating", "setting": "velvetleaf; [3]", "result": 100}, {"measurement": "Rice plant response rating", "setting": "rice", "result": 90}, {"measurement": "Lambsquarters plant response rating (0 to 100 scale)", "setting": "lambsquarters; 125 g ai/ha", "result": 100}, {"measurement": "Lambsquarters plant response rating", "setting": "lambsquarters; [2]", "result": 70}, {"measurement": "Plant response rating, Lambsquarters", "setting": "lambsquarters; 500 g ai/ha, visual rating", "result": 100}, {"measurement": "Lambsquarters plant response rating", "setting": "lambsquarters; [3]", "result": 80}, {"measurement": "Ducksalad plant response rating", "setting": "ducksalad", "result": 90}, {"measurement": "Oat, Wild plant response rating", "setting": "wild oat; [2]", "result": 20}, {"measurement": "Oat, Wild plant response rating", "setting": "wild oat; [3]", "result": 40}, {"measurement": "Morningglory plant response rating (0 to 100 scale)", "setting": "morningglory; 125 g ai/ha", "result": 10}, {"measurement": "Morningglory plant response rating", "setting": "morningglory; [2]", "result": 60}, {"measurement": "Plant response rating, Morningglory", "setting": "morningglory; 500 g ai/ha, visual rating", "result": 80}, {"measurement": "Morningglory plant response rating", "setting": "morningglory; [3]", "result": 90}]}]}
